From ChEMBL document CHEMBL1201862, “PubChem BioAssay data set” (2004) come the findings set out here.

The target in assay [1] is T1, Tyrosine-protein phosphatase non-receptor type 22 (Homo sapiens, UniProt Q9Y2R2).
T1 sequence (Q9Y2R2 whole entry): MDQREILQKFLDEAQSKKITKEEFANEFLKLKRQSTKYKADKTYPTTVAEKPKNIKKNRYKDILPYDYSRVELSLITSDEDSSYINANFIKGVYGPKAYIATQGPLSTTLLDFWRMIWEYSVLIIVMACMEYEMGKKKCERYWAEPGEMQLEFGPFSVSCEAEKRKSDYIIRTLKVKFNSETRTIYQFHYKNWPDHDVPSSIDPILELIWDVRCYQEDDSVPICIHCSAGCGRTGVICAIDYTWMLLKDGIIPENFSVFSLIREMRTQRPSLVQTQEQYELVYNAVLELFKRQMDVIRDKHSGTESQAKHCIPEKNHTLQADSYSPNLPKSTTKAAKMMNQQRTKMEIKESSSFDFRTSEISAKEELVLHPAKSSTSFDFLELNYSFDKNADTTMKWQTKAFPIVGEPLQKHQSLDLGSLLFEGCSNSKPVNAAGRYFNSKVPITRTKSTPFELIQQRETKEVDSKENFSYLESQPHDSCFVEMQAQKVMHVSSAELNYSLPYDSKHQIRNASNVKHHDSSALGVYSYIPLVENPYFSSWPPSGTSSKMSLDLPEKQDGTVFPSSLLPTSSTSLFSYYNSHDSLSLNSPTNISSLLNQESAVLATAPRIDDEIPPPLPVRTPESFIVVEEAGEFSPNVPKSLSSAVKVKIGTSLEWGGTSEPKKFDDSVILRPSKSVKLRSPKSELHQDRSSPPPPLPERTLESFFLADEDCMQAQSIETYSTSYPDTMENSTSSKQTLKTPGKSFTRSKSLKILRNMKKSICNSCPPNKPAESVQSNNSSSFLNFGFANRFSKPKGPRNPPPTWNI
In kind it is functional.

In a further assay the target is Bcl-2-like protein 1 (Homo sapiens, UniProt Q07817). The assay is described as follows: BCL-XL inhibitors, dose response, selectivity assay for MCL1 inhibitor project, biochemical, fluorescence polarization, 1536-well (AID 2218). For orientation: Fluorescence polarisation rises when a labelled molecule tumbles more slowly, as on binding a larger partner.
Assay [2] has as its target T2, Dual specificity protein phosphatase 3 (Homo sapiens, UniProt P51452). The assay is described as follows: VHR1 phosphatase inhibitors, biochemical (AID 1878).
The nature of assay [3]: inhibitors of SNCA 5'UTR-driven reporter translation, confirmation, H4 neuroglioma cells, luminescence (AID 1988). In kind it is functional, cell-based.
For assay [4], the target named is T2, Dual specificity protein phosphatase 3. Put plainly: VHR1 phosphatase inhibitors, primary screen, biochemical, absorbance, uHTS (AID 1654).
Assay [5] is described as follows: Luminescence Cell-Based Dose Response HTS to Identify Inhibitors of 5'UTR Stem-Loop Driven Prion Protein mRNA Translation in H4 Neuroglioblastoma Cells. [Related pubchem assays: 1827 (Project Summary), 1813 (Primary HTS)]. In kind it is functional.
In assay [6] the target is T3, Dual specificity protein phosphatase 6 (Rattus norvegicus, UniProt Q64346).
T3 sequence (Q64346 whole entry): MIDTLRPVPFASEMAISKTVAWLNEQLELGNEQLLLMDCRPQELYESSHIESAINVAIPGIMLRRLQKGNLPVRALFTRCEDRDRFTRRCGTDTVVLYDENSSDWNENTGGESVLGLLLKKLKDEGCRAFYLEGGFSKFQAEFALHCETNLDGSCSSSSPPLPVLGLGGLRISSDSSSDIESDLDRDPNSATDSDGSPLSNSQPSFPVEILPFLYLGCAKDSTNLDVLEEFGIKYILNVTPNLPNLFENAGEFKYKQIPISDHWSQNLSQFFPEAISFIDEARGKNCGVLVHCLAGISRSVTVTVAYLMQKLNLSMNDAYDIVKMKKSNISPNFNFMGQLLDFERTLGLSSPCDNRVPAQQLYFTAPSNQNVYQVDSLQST
Put plainly: MKP-3 phosphatase inhibitors, primary screen, biochemical, rat enzyme, in vitro (AID 425).

Assay [7] in a line: inhibitors of firefly luciferase expression or activity, dose response, H4 neuroglioma cells, luminescence (AID 1990). In kind it is functional, cell-based.
A further assay relates to INS1. Put plainly: beta cell apoptosis inhibitors, cytokine rescue, dose response, luminescence, retest (AID 449756).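 Note: cell death triggered by IL-1 beta plus TNF-alpha plus IFN-gamma mixture; protective hits raise ATP signal compared with cytokine alone wells.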 Format: functional, cell-based. Particulars: Rattus norvegicus.
Assay [8] addresses T1, Tyrosine-protein phosphatase non-receptor type 22. In kind it is functional. This is another data set of the same source.
Assay [9] has as its target T4, Tyrosine-protein phosphatase non-receptor type 7 (Homo sapiens, UniProt P35236).
T4 sequence (P35236 whole entry): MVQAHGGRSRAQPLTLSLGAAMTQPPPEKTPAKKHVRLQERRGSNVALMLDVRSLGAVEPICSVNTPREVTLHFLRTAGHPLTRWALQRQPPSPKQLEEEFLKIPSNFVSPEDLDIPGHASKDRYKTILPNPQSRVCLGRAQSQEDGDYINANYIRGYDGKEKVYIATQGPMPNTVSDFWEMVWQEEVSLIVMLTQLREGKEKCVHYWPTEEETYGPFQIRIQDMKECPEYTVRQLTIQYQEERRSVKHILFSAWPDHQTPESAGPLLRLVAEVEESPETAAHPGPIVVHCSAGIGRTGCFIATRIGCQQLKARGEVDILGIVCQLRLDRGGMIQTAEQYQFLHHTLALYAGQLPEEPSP
In kind it is functional.

Assay [10] addresses Induced myeloid leukemia cell differentiation protein Mcl-1 (Homo sapiens, UniProt Q07820). Put plainly: MCL1-BIM BH3 interaction inhibitors, dose response, biochemical, fluorescence polarization, BIM-BH3 peptide, 1536-well (AID 2217).
Assay [11] has as its target T4, Tyrosine-protein phosphatase non-receptor type 7. Put plainly: redox-dependent HePTP inhibition, mechanism study, biochemical, fluorescence (AID 2068). In kind it is functional.
Assay [12] addresses T1, Tyrosine-protein phosphatase non-receptor type 22. Put plainly: LYP (PTPN22) phosphatase inhibitor potency, SAR follow-up, biochemical, pCAP fluorogenic substrate, fluorescence, set 3 (AID 449727). Format: functional.
The target is the same in assay [13]. Put plainly: SAR LYP1 Fluorescent Assay using OMFP substrate for In Vitro dose response studies - Set 3. [Related pubchem assays (depositor defined):AID1779, AID1784, AID2140, AID2686]. In kind it is functional.
Assay [14] has as its target T4, Tyrosine-protein phosphatase non-receptor type 7. The assay is described as follows: HePTP (PTPN7) phosphatase inhibitor potency, SAR follow-up, biochemical, set 2 (AID 449736). Format: functional.
The target of assay [15] is T2, Dual specificity protein phosphatase 3. Put plainly: SAR VHR1 Fluorescent Assay for In Vitro dose response studies. [Related pubchem assays (depositor defined):AID1654, AID1661, AID1878, AID1992, AID2004, AID2070, AID2085]. Format: functional.
In assay [16] the target is T3, Dual specificity protein phosphatase 6. In kind it is functional.
Assay [17] addresses Tyrosine-protein phosphatase non-receptor type 12 (Homo sapiens, UniProt Q05209). The assay is described as follows: SAR Selectivity Analysis of small molecule inhibitors of PEST using pCAP in a fluorescence assay. [Related pubchem assays (depositor defined):AID1779, AID1784, AID2135]. In kind it is functional.
Assay [18] has as its target T2, Dual specificity protein phosphatase 3. The assay is described as follows: SAR VHR1 absorbance Assay for In Vitro dose response studies. [Related pubchem assays (depositor defined):AID1654, AID1661, AID1878, AID1992, AID2004].
The target of assay [19] is Signal transducer and activator of transcription 1-alpha/beta (Homo sapiens, UniProt P42224). The assay is described as follows: STAT3 inhibitors, late-stage profile, late-stage follow-up, cell-based, STAT1 panel, qPCR, cytotoxicity, panel member STAT1 Inhibition (AID 2078). (Real-time PCR tracks product formation cycle by cycle.)
For assay [20], the target named is Signal transducer and activator of transcription 3 (Homo sapiens, UniProt P40763). Put plainly: STAT3 inhibitors, late-stage profile, late-stage follow-up, cell-based, STAT1 panel, qPCR, cytotoxicity, panel member STAT3 Inhibition (AID 2078).
The target in assay [21] is T5, Interleukin-8 (Homo sapiens, UniProt P10145). The assay is described as follows: SAR analysis of GM-Tri-DAP induced IL-8 secretion in MCF-7/NOD1 cells - Set 2. [Related pubchem assays (depositor defined):AID1575, AID1578, AID2333]. In kind it is functional, cell-based.
For a further assay, the target named is Tumor necrosis factor (Homo sapiens, UniProt P01375). Put plainly: TNFa-triggered NF-kB activation inhibitors, SAR follow-up, cell-based, set 3 (AID 2801). In kind it is functional.
In assay [22] the target is T5, Interleukin-8. The assay is described as follows: SAR analysis of Tumor necrosis factor alpha (TNF-alpha) induced IL-8 secretion in MCF-7/NOD1 cells - Set 2. [Related pubchem assays (depositor defined):AID1575, AID2250, AID2260]. Format: functional, cell-based.
The target of assay [23] is T6, Nucleotide-binding oligomerization domain-containing protein 1 (Homo sapiens, UniProt Q9Y239). The assay is described as follows: SAR analysis of compounds that inhibit NOD1 - Set 3. [Related pubchem assays (depositor defined):AID1566, AID1575, AID1578, AID1849, AID1852, AID2333, AID2335, AID2466]. Format: functional.
The target in assay [24] is T6, Nucleotide-binding oligomerization domain-containing protein 1. Put plainly: SAR analysis of NF-kappaB dependent luciferase using DAP as an inducer - Set 2. [Related pubchem assays (depositor defined):AID1566, AID1575, AID1578, AID1579, AID1849, AID1852, AID2264]. In kind it is functional.
Assay [25] has as its target T7, Nucleotide-binding oligomerization domain-containing protein 2 (Homo sapiens, UniProt Q9HC29). Put plainly: NOD2 inhibitors, SAR follow-up, set 2 (AID 2475). In kind it is functional.
Assay [26] addresses T7, Nucleotide-binding oligomerization domain-containing protein 2. Put plainly: NOD2 signaling inhibitors, analog potency, SAR follow-up, cell-based, set 3 (AID 2799). In kind it is functional.
Assay [27] relates to HEK293. Put plainly: SAR analysis of compounds that are cytotoxic to HEK293 - Set 3. [Related pubchem assays (depositor defined):AID1575, AID1578, AID1848, AID1849, AID2001, AID2333, AID2334, AID2335, AID2337, AID2469]. In kind it is functional, cell-based. As to conditions: Homo sapiens.
Assay [28] has as its system HEK293. The assay is described as follows: SAR analysis of compounds that are cytotoxic to HEK293 - Set 2. [Related pubchem assays (depositor defined):AID1575, AID1578, AID1849, AID2001, AID2333, AID2334, AID2335, AID2337, AID2800]. Format: functional, cell-based. Particulars: Homo sapiens.

Structures are written as SMILES. The source made the active and inactive calls.

T2 sequence (P51452 whole entry): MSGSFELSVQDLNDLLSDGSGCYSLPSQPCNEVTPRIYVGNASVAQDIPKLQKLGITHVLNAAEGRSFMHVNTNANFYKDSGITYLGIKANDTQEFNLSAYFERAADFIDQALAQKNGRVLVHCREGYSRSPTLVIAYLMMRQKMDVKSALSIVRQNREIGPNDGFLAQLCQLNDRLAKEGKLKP
T6 sequence (Q9Y239 whole entry, the tested form may be a part): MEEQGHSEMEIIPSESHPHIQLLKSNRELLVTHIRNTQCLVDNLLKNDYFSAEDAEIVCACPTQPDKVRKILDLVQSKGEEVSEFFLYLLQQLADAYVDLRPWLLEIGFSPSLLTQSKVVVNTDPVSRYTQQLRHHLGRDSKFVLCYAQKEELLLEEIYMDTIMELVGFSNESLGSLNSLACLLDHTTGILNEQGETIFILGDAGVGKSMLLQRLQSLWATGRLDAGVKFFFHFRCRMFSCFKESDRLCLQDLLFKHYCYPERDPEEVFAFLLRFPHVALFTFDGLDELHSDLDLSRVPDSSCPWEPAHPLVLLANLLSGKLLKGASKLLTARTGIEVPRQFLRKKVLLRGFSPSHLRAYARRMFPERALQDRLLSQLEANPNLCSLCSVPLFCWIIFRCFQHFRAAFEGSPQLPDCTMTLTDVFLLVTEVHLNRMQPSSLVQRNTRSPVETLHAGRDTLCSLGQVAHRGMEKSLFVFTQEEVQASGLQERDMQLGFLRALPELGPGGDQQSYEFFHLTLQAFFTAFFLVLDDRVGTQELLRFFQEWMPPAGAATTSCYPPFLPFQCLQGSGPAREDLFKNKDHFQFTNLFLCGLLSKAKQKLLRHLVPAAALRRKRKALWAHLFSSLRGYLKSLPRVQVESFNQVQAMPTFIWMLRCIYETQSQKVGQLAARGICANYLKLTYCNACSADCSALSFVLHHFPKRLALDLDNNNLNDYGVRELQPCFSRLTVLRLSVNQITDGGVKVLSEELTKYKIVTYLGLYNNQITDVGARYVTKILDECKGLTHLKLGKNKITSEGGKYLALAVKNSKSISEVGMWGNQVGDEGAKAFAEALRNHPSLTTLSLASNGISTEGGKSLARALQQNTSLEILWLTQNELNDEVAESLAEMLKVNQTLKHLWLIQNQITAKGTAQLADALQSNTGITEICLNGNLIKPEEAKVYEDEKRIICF
T7 sequence (Q9HC29 whole entry, the tested form may be a part): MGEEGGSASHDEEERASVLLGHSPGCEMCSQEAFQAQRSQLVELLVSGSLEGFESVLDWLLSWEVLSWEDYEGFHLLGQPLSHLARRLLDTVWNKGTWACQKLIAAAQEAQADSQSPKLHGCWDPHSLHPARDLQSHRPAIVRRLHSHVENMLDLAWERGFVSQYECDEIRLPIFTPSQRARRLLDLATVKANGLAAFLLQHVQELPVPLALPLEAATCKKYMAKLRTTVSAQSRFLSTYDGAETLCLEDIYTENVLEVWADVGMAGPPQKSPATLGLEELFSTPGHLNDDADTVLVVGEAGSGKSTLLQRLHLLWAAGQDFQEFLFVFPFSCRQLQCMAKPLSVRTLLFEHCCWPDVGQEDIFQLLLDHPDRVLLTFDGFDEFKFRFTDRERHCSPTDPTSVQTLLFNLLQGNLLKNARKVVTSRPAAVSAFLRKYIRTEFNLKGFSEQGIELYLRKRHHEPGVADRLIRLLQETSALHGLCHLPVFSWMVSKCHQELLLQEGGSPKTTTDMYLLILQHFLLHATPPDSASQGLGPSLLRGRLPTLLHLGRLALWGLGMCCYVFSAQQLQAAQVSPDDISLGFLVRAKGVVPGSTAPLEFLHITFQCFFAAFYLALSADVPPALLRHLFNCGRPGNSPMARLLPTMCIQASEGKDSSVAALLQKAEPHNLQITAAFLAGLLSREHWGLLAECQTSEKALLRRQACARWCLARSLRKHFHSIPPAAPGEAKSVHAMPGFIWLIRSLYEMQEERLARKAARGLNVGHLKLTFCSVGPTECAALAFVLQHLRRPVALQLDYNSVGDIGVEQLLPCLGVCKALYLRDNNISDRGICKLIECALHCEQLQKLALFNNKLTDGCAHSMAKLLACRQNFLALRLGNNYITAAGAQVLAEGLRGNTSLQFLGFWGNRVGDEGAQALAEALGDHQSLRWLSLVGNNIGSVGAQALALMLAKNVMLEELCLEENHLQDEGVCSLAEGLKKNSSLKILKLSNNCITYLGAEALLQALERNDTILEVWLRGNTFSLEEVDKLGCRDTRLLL
T5 sequence (P10145 whole entry): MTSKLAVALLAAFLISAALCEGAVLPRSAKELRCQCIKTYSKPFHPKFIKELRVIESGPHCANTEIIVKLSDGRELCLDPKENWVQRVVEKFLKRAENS
Signal transducer and activator of transcription 3, sequence (P40763 whole entry): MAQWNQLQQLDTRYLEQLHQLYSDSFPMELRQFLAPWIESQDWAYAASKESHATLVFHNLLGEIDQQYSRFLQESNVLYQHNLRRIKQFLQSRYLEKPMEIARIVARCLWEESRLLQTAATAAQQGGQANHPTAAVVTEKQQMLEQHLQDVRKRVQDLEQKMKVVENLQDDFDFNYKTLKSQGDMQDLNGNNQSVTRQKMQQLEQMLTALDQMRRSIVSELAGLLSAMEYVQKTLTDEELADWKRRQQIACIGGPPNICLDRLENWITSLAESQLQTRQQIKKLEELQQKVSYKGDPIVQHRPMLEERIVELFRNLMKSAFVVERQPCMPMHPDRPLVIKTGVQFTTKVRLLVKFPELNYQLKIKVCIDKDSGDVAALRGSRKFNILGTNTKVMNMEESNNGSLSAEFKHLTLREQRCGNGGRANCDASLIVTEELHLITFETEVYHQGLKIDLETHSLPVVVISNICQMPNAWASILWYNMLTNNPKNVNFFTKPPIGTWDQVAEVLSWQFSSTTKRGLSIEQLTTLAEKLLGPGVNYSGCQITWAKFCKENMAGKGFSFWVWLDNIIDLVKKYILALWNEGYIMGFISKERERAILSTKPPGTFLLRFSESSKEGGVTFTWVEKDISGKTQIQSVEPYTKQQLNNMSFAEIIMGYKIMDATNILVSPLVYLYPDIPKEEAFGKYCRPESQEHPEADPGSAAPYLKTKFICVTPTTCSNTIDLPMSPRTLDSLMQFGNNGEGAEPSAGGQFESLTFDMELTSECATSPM
Tyrosine-protein phosphatase non-receptor type 12, sequence (Q05209 whole entry): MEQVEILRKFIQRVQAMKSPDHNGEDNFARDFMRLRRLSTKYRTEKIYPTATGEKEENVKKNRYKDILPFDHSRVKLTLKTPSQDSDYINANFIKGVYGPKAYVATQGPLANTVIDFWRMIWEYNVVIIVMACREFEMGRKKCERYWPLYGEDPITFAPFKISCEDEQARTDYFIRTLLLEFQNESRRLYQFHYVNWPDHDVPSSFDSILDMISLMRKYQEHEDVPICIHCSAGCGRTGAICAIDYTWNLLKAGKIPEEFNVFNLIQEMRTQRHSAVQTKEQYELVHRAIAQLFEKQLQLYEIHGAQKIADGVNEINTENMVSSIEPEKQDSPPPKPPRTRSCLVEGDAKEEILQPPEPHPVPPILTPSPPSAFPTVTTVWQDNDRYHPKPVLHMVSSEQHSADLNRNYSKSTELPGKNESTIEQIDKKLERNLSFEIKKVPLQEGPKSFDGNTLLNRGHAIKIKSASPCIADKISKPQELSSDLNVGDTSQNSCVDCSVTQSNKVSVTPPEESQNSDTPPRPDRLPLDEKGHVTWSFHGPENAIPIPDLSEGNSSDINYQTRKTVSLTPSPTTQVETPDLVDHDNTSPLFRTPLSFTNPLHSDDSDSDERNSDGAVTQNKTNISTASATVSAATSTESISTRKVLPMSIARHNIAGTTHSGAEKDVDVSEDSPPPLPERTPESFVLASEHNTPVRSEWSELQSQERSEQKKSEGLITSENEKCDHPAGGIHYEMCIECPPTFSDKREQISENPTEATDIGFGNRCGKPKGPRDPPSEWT
Tumor necrosis factor, sequence (P01375 whole entry): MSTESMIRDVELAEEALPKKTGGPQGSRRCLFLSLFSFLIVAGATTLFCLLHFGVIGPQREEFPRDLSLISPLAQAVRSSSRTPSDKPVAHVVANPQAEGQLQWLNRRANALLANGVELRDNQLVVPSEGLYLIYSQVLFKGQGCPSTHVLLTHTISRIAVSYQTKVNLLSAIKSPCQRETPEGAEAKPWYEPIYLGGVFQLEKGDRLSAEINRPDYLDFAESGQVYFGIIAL
Signal transducer and activator of transcription 1-alpha/beta, sequence (P42224 whole entry): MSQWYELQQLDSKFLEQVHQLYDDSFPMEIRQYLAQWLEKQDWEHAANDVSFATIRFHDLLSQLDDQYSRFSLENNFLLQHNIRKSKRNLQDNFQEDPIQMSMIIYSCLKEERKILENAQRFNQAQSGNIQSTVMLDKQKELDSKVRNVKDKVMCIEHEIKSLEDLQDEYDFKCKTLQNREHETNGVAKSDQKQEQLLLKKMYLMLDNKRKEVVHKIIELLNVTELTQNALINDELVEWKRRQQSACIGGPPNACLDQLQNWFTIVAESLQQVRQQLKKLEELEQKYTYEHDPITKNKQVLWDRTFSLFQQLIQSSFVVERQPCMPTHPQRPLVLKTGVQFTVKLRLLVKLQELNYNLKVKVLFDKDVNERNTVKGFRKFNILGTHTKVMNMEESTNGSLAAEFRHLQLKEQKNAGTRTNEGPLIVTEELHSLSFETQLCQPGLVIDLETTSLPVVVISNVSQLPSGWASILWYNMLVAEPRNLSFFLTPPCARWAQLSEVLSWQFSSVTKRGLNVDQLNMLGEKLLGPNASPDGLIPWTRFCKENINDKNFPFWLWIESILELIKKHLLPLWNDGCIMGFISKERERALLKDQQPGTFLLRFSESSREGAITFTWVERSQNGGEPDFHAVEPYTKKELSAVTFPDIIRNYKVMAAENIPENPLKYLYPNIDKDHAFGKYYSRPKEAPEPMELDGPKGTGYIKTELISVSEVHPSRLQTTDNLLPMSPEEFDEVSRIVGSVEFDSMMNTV

As to `COc1cccc(/C=N/NC(=O)c2cc3cc([N+](=O)[O-])ccc3s2)c1O`, the IC50 in assay [1] was 13.1 µM (active); against Bcl-2-like protein 1 it was > 109 µM (not active); in assay [2], 5.31 µM (active); in [4], 25.2 µM (active); in [6], 116 µM (not active); in assay [8], 15.7 µM (active). In addition, the half-maximal inhibitory concentration (IC50) in assay [9] was 14.9 µM (active); in [10], 2.02 µM (active). The values for the EC50 in assay [3], in [5] and in assay [7] were 7.86 µM (active), 9.8 µM (active) and 7.1 µM (active), respectively. For the same molecule, in the assay on INS1, the AC50 is 3.15 µM (active).
In the case of `O=C(O)COc1ccc2ccccc2c1`, the IC50 in [11] is 54.7 µM (active); in assay [12], > 100 µM (inactive); in [13], > 100 µM (inactive); in assay [14], > 100 µM (inactive); in [15], > 99 µM (inactive); in assay [16] it was > 99 µM (inactive). Besides, the IC50 in assay [17] and in assay [18] was > 100 µM (inactive) throughout.
Consider `OC(c1ccccc1)C1CCN(c2ncnc3sccc23)CC1` (stereo unspecified), for which the IC50 in [19] is > 55.7 µM (inactive); in assay [20], 1.84 µM (active).
`CC(C)Sc1nc2c(c(=O)[nH]c(=O)n2C)n1Cc1ccccc1`: the IC50 on Interleukin-8 [21] is 3.31 µM (active); on Tumor necrosis factor, > 20 µM (inactive); at Interleukin-8 [22] it was > 25 µM (inactive); in [23], 1.99 µM (active); in assay [24], 18.5 µM (active); in assay [25], 18.1 µM (active). Also, the IC50 (in assay [26]; in the assay on HEK293 [27]; in the assay on HEK293 [28]) was > 20 µM (inactive) in each case.

Broadly, the IC50 is the concentration that gives 50% inhibition. For orientation: EC50 means the midpoint of the concentration-response curve. As usually defined, the AC50 is the concentration at which the activity in the assay is half-maximal.
